Patent US20050192314A1, “Urea derivatives as C-kit modulators” (Ambit Biosciences Corporation, priority 2003, published 2005)

The compounds below were run against T1, KIT(DKIN) (Homo sapiens, UniProt P10721) (assay: Binding constant (Kd) measurement, phage-displayed kinase competition binding assay: KIT(DKIN)).
T1 construct: KIT(DKIN); made in house
Excerpt: (§1) The term “ND” represents non-determined values.

T1 sequence (P10721 589-937 limits assumed): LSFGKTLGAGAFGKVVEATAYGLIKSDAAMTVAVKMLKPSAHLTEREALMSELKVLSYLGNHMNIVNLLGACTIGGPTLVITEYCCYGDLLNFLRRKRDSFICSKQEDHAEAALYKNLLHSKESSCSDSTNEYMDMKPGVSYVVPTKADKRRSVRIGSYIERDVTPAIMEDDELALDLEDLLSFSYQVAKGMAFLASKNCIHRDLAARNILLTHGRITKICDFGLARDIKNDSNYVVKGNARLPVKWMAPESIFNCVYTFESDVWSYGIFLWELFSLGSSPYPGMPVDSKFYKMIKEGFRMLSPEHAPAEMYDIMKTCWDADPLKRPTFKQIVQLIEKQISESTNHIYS

Row | SMILES | Kd
1 | CC(C)(C)c1cc(NC(=O)Nc2ccc(NC(=O)/C=C/c3ccccc3Cl)cc2)no1 [Compound N40] | 0.1 to 1 µM
2 | CC(C)(C)c1cc(NC(=O)Nc2ccc(NC(=O)c3ccc4sccc4c3)cc2)no1 [Compound N122] | 0.1 to 1 µM
3 | Cc1nc(-c2ccc(C(=O)Nc3ccc(NC(=O)Nc4cc(C(C)(C)C)on4)cc3)s2)cs1 [Compound N173] | 0.1 to 1 µM
4 | CC(C)(C)c1cc(NC(=O)Nc2ccc(NC(=O)c3ccc4ccccc4c3)cc2)no1 [Compound N28] | < 0.1 µM
5 | CC(C)(C)c1cc(NC(=O)Nc2ccc(NC(=O)c3cc4ccccc4cn3)cc2)no1 [Compound N106] | < 0.1 µM
6 | Cc1ccc2sc(C(=O)Nc3ccc(NC(=O)Nc4cc(C(C)(C)C)on4)cc3)cc2c1 [Compound N133] | 0.1 to 1 µM
7 | CC(C)(C)c1cc(NC(=O)Nc2ccc(NC(=O)c3cccc(F)n3)cc2)no1 [Compound N8] | < 0.1 µM
8 | Cc1cccc(C(=O)Nc2ccc(NC(=O)Nc3cc(C(C)(C)C)on3)cc2)n1 [Compound N121] | < 0.1 µM
9 | CC(C)(C)c1cc(NC(=O)Nc2ccc(NC(=O)c3ccc4ccncc4n3)cc2)no1 [Compound N110] | < 0.1 µM
10 | CC(C)(C)c1cc(NC(=O)Nc2ccc(OCCCc3ccncc3)cc2)no1 [Compound G1, 1-(4-(3-(pyridin-4-yl)propoxy)phenyl)-3-(5-tert-butylisoxazol-3-yl)urea] | < 0.1 µM
11 | Cc1nc(N)cc(Nc2ccc(NC(=O)Nc3cc(C(C)(C)C)on3)cc2)n1 [Compound O10] | 0.1 to 1 µM
12 | CC(C)(C)c1cc(NC(=O)Nc2ccc(NC(=O)c3cc(Cl)nnc3Cl)cc2)no1 [Compound N174] | 1 to 10 µM
13 | Cc1ccc(C(=O)Nc2ccc(NC(=O)Nc3cc(C(C)(C)C)on3)cc2)cc1 [Compound N92] | 0.1 to 1 µM
14 | CC(C)(C)c1cc(NC(=O)Nc2ccc(NC(=O)c3cc(Cl)cn(Cc4ccccc4)c3=O)cc2)no1 [Compound N112] | 1 to 10 µM
15 | CN(Cc1cccc([N+](=O)[O-])c1)C(=O)Nc1cc(C(C)(C)C)on1 [Compound J3] | 1 to 10 µM
16 | CC(C)(C)c1cc(NC(=O)Nc2ccc(OCC(O)CO)cc2)no1 (stereo not shown) [Compound G28] | 0.1 to 1 µM
17 | CC(C)(CO)c1cc(NC(=O)Nc2ccc(OCc3ccccc3)cc2)on1 [Compound G2] | 0.1 to 1 µM

Each compound was assayed against T2, KIT(JMminus) (Homo sapiens, UniProt P10721) (assay: Binding constant (Kd) measurement, phage-displayed kinase competition binding assay: KIT(JMminus)).
T2 construct: KIT(JMminus); made in house
Excerpt: as §1

T2 sequence (P10721 589-937 limits assumed): as above

Row | SMILES | Kd
18 | CC(C)(C)c1cc(NC(=O)Nc2ccc(NC(=O)c3nnsc3Cc3ccc(Cl)cc3)cc2)no1 [Compound N71] | 0.1 to 1 µM
19 | CC(C)(C)c1cc(NC(=O)Nc2ccc(NC(=O)c3cc(Br)cn(Cc4ccccc4)c3=O)cc2)no1 [Compound N67] | < 0.1 µM
20 | CC(C)(C)c1cc(NC(=O)Nc2ccc(NC(=O)c3ccccc3O)cc2)no1 [Compound N69] | 1 to 10 µM
21 | CC(C)(C)c1cc(NC(=O)Nc2ccc(NC(=O)/C=C/c3ccccc3Cl)cc2)no1 [Compound N40] | < 0.1 µM
22 | CC(C)(C)c1cc(C(=O)Nc2ccc(NC(=O)Nc3cc(C(C)(C)C)on3)cc2)n(-c2ccccc2)n1 [Compound N78] | < 0.1 µM
23 | COc1cc(OC)nc(Oc2ccccc2C(=O)Nc2ccc(NC(=O)Nc3cc(C(C)(C)C)on3)cc2)n1 [Compound N70] | 0.1 to 1 µM
24 | COc1cc(OC)nc(C2CCCCC2C(=O)Nc2ccc(NC(=O)Nc3cc(C(C)(C)C)on3)cc2)n1 (stereo not shown) [Compound N129] | < 0.1 µM
25 | COc1cc(NC(=O)CCC(=O)N2CCNC(=O)CC2)ccc1NC(=O)Nc1cc(C(C)(C)C)on1 [Compound N172] | 0.1 to 1 µM
26 | CC(C)(C)c1cc(NC(=O)Nc2ccc(NC(=O)c3ccc4sccc4c3)cc2)no1 [Compound N122] | < 0.1 µM
27 | CC(C)(C)c1cc(NC(=O)Nc2ccc(NC(=O)c3cccc[n+]3[O-])cc2)no1 [Compound N81] | < 0.1 µM
28 | CC(C)(C)c1cc(NC(=O)Nc2ccc(NC(=O)C3=Cc4cc(F)cc(S(C)(=O)=O)c4C3)cc2)no1 [Compound N62] | < 0.1 µM
29 | Cc1nc(-c2ccc(Cl)cc2)sc1C(=O)Nc1ccc(NC(=O)Nc2cc(C(C)(C)C)on2)cc1 [Compound N184] | < 0.1 µM
30 | CC(C)(C)c1cc(NC(=O)Nc2ccc3c(c2)OCO3)no1 [Compound A56] | 0.1 to 1 µM
31 | COc1ccc(C(=O)c2c[nH]c(C(=O)Nc3ccc(NC(=O)Nc4cc(C(C)(C)C)on4)cc3)c2)cc1 [Compound N177] | 0.1 to 1 µM
32 | COc1cc(NC(=O)c2cn3nc(Cl)ccc3n2)ccc1NC(=O)Nc1cc(C(C)(C)C)on1 [Compound N171] | < 0.1 µM
33 | COc1cc(OC)nc(Sc2ccccc2C(=O)Nc2ccc(NC(=O)Nc3cc(C(C)(C)C)on3)cc2)n1 [Compound N47] | < 0.1 µM
34 | Cc1nc(-c2ccc(C(=O)Nc3ccc(NC(=O)Nc4cc(C(C)(C)C)on4)cc3)s2)cs1 [Compound N173] | < 0.1 µM
35 | CC(C)(C)c1cc(NC(=O)Nc2ccc(NC(=O)c3ccc(Oc4ccnc(C(=O)O)c4)cc3)cc2)no1 [Compound N166] | < 0.1 µM
36 | CC(C)(C)c1cc(NC(=O)Nc2ccc(NC(=O)c3ccc4ccccc4c3)cc2)no1 [Compound N28] | < 0.1 µM
37 | CC(C)(C)c1cc(NC(=O)Nc2ccc(NC(=O)c3cc4ccccc4cn3)cc2)no1 [Compound N106] | < 0.1 µM
38 | CCOC(=O)c1cccc(C(=O)Nc2ccc(NC(=O)Nc3cc(C(C)(C)C)on3)cc2)n1 [Compound N164] | < 0.1 µM
39 | CC(C)(C)c1cc(NC(=O)Nc2ccc(NC(=O)c3cc(O)c4cccc(O)c4n3)cc2)no1 [Compound N176] | 1 to 10 µM
40 | Cc1ccc2sc(C(=O)Nc3ccc(NC(=O)Nc4cc(C(C)(C)C)on4)cc3)cc2c1 [Compound N133] | < 0.1 µM

Row | SMILES | Kd
41 | CC(C)(C)c1cc(NC(=O)Nc2ccc(Nc3cc(N)nc(N)n3)cc2)no1 [Compound O7] | < 0.1 µM
42 | CC(C)(C)c1cc(NC(=O)Nc2ccc(NC(=O)c3cccc(F)n3)cc2)no1 [Compound N8] | < 0.1 µM
43 | Cc1cccc(C(=O)Nc2ccc(NC(=O)Nc3cc(C(C)(C)C)on3)cc2)n1 [Compound N121] | < 0.1 µM
44 | CC(=O)c1c[nH]c(C(=O)Cc2ccc(NC(=O)Nc3cc(C(C)(C)C)on3)cc2)c1 [Compound N43] | < 0.1 µM
45 | CC(C)(C)c1cc(NC(=O)Nc2ccc(NC(=O)c3cc(-c4ccc(O)cc4)cs3)cc2)no1 [Compound N77] | < 0.1 µM
46 | CC(C)(C)c1cc(NC(=O)Nc2ccc(NC(=O)Cc3sc(-c4ccc(Cl)cc4)nc3-c3ccccc3)cc2)no1 [Compound N66] | < 0.1 µM
47 | CC(C)c1cc(NC(=O)Nc2ccc(NC(=O)C3CCN(c4ncc(C(F)(F)F)cc4Cl)CC3)cc2)no1 [Compound N59] | 0.1 to 1 µM
48 | CC(C)(C)c1cc(NC(=O)Nc2ccc(NC(=O)c3cc(N4CCOCC4)nc(N4CCOCC4)c3)cc2)no1 [Compound N54] | < 0.1 µM
49 | CC(C)(C)c1cc(NC(=O)Nc2ccc(NC(=O)c3ccc4ccncc4n3)cc2)no1 [Compound N110] | < 0.1 µM
50 | CC(C)(C)c1cc(NC(=O)Nc2ccc([N+](=O)[O-])cc2)no1 [Compound A21] | < 0.1 µM
51 | CC(C)(C)c1cc(NC(=O)Nc2ccc(NC(=O)c3cscn3)cc2)no1 [Compound N57] | < 0.1 µM
52 | Cc1cnc(C(=O)Nc2ccc(NC(=O)Nc3cc(C(C)(C)C)on3)cc2)c(C(=O)O)n1 [Compound N160] | < 0.1 µM
53 | COc1cc(C(=O)Nc2ccc(NC(=O)Nc3cc(C(C)(C)C)on3)cc2)nc(OC)n1 [Compound N162] | < 0.1 µM
54 | COc1cc(OC)nc(Oc2cccnc2C(=O)Nc2ccc(NC(=O)Nc3cc(C(C)(C)C)on3)cc2)n1 [Compound N56] | 0.1 to 1 µM
55 | CC(C)(C)c1cc(NC(=O)Nc2ccc(NC(=O)c3cc4cccc5c4n(c3=O)CC5)cc2)no1 [Compound N60] | < 0.1 µM
56 | CC(C)(C)c1cc(NC(=O)Nc2ccc(OCCCc3ccncc3)cc2)no1 [Compound G1, 1-(4-(3-(pyridin-4-yl)propoxy)phenyl)-3-(5-tert-butylisoxazol-3-yl)urea] | < 0.1 µM
57 | COc1cc(OC)nc(Nc2cccc(C(=O)Nc3ccc(NC(=O)Nc4cc(C(C)(C)C)on4)cc3)c2)n1 [Compound N49] | < 0.1 µM
58 | Cn1nc(C(F)(F)F)c(C(=O)Nc2ccc(NC(=O)Nc3cc(C(C)(C)C)on3)cc2)c1Cl [Compound N68] | < 0.1 µM
59 | Cc1nc(N)cc(Nc2ccc(NC(=O)Nc3cc(C(C)(C)C)on3)cc2)n1 [Compound O10] | < 0.1 µM
60 | CC(=O)c1ccc(N2CCC(C(=O)Nc3ccc(NC(=O)Nc4cc(C(C)(C)C)on4)cc3)CC2)cc1 [Compound N65] | < 0.1 µM
61 | CC(C)(C)c1cc(NC(=O)Nc2ccc(NC(=O)c3nn(-c4cccc(C(F)(F)F)c4)c(=O)cc3O)cc2)no1 [Compound N185] | < 0.1 µM
62 | CC(C)(C)c1cc(NC(=O)Nc2ccc(NC(=O)c3cc4cc(F)cc(S(C)(=O)=O)c4[nH]3)cc2)no1 [Compound N58] | 0.1 to 1 µM
63 | CC(C)(C)c1cc(NC(=O)Nc2ccc(NC(=O)c3cc(Cl)nnc3Cl)cc2)no1 [Compound N174] | 1 to 10 µM

Row | SMILES | Kd
64 | Cc1ccc(C(=O)Nc2ccc(NC(=O)Nc3cc(C(C)(C)C)on3)cc2)cc1 [Compound N92] | < 0.1 µM
65 | CC(C)(C)c1cc(NC(=O)Nc2ccc(NC(=O)c3cc4cccnc4nc3C(F)(F)F)cc2)no1 [Compound N61] | 0.1 to 1 µM
66 | CC(C)(C)c1cc(NC(=O)Nc2ccc(NC(=O)c3nocc3C(C)(C)C)cc2)no1 [Compound N82] | < 0.1 µM
67 | CC(C)(C)c1cc(NC(=O)Nc2ccc(NC(=O)c3nccc4ccccc34)cc2)no1 [Compound N117] | < 0.1 µM
68 | CC(C)c1nnsc1C(=O)Nc1ccc(NC(=O)Nc2cc(C(C)(C)C)on2)cc1 [Compound N182] | 0.1 to 1 µM
69 | COc1ccc(NC(=O)Nc2cc(C(C)(C)C)on2)cc1OC [Compound A55] | 1 to 10 µM
70 | Cn1nc(C(F)(F)F)c2cc(C(=O)Nc3ccc(NC(=O)Nc4cc(C(C)(C)C)on4)cc3)sc21 [Compound N64] | 0.1 to 1 µM
71 | Cc1cc(NC(=O)c2cn3nc(Cl)ccc3n2)ccc1NC(=O)Nc1cc(C(C)(C)C)on1 [Compound N169] | < 0.1 µM
72 | CN(C)c1ccc(C(=O)Nc2ccc(NC(=O)Nc3cc(C(C)(C)C)on3)cc2)cn1 [Compound N159] | < 0.1 µM
73 | COc1ccnc(Nc2ccc(C(=O)Nc3ccc(NC(=O)Nc4cc(C(C)(C)C)on4)cc3)cc2)n1 [Compound N51] | < 0.1 µM
74 | CC(C)(C)c1cc(NC(=O)Nc2ccc(NC(=O)c3nnsc3Sc3ccc(C(F)(F)F)cc3)cc2)no1 [Compound N179] | < 0.1 µM
75 | Cc1ccc(-c2nc(C(=O)Nc3ccc(NC(=O)Nc4cc(C(C)(C)C)on4)cc3)cs2)cc1 [Compound N178] | < 0.1 µM
76 | CC(C)(C)c1cc(NC(=O)Nc2ccc(NC(=O)c3csc(Cc4cccc(C(F)(F)F)c4)n3)cc2)no1 [Compound N180] | < 0.1 µM
77 | CC(C)(C)c1cc(NC(=O)Nc2ccc(NC(=O)c3sccc3OCc3cccc(C(F)(F)F)c3)cc2)no1 [Compound N183] | < 0.1 µM
78 | CC(C)(C)c1cc(NC(=O)Nc2ccc(NC(=O)c3cn4c(n3)sc3ccccc34)cc2)no1 [Compound N73] | < 0.1 µM
79 | CC(C)(C)c1cc(NC(=O)Nc2ccc(NC(=O)CNCC(=O)Nc3ccccc3)cc2)no1 [Compound N72] | < 0.1 µM
80 | CC(C)(C)c1cc(NC(=O)Nc2ccc(Nc3nc(N)nc4[nH]cnc34)cc2)no1 [Compound O6] | < 0.1 µM
81 | Cc1cc(NC(=O)[C@](C)(O)CSc2ccc(F)cc2)ccc1NC(=O)Nc1cc(C(C)(C)C)on1 [Compound N170] | < 0.1 µM
82 | CC(C)(C)c1cc(NC(=O)Nc2ccc(NC(=O)c3cccnc3C(=O)O)cc2)no1 [Compound N165] | < 0.1 µM
83 | Cc1nc(-c2ccccc2)sc1C(=O)Nc1ccc(NC(=O)Nc2cc(C(C)(C)C)on2)cc1 [Compound N181] | < 0.1 µM
84 | COc1cc(OC)nc(N(C)c2cccc(C(=O)Nc3ccc(NC(=O)Nc4ccon4)cc3)c2)n1 [Compound N53] | < 0.1 µM
85 | CC(C)(C)c1cc(NC(=O)Nc2ccc(NC(=O)Cc3noc4ccccc34)cc2)no1 [Compound N80] | < 0.1 µM
